Among the data in ChEMBL document CHEMBL4431387, “Anti-adipogenic and anti-diabetic effects of cis-3',4'-diisovalerylkhellactone isolated from Peucedanum japonicum Thunb leaves in vitro” (Bioorg Med Chem Lett, 2016) are Activity and inhibition values, retold here.

Each structure is given as a SMILES string. The source made the active and inactive calls. The calls are words filed in the database; no cut-off is given here.

Data set [1] relates to 3T3-L1. The data set is described as follows: Antiadipogenic activity in mouse 3T3L1 cells assessed as suppression of adipocyte differentiation after 8 days by oil red o-staining based spectrophotometric analysis. Type of data set: functional, cell-based.
For data set [2], the system named is 3T3-L1. The data set is described as follows: Induction of glucose uptake in differentiated mouse 3T3L1 cells at 50 uM preincubated for 20 mins followed by 2-deoxyglucose addition measured after 20 mins by fluorescence assay relative to control. The class given is functional.
Data set [3] concerns 3T3-L1. The data set is described as follows: Antiadipogenic activity in differentiated mouse 3T3L1 cells assessed as reduction in triglyceride levels at 30 uM after 8 days by oil red o-staining based spectrophotometric analysis relative to control. Type of data set: functional. Set-up: scale not given: the % may be the effect or the level left.
The test system of data set [4] is 3T3-L1. As to the kind of experiment: Antiadipogenic activity in mouse 3T3L1 cells assessed as suppression of adipocyte differentiation at 20 uM after 8 days by oil red o-staining based spectrophotometric analysis. Type of data set: functional.
The test system of data set [5] is 3T3-L1. As to the kind of experiment: Cytotoxicity against mouse 3T3L1 cells assessed as reduction in cell viability at 10 to 50 uM after 48 hrs by SRB assay. The settings on record: 3t3-l1, 48 h. The class given is cell-based. For orientation: Sulforhodamine B stains cellular protein and so reports cell mass.
Data set [6] relates to 3T3-L1. The data set is described as follows: Downregulation of SREBP-1c mRNA expression in mouse 3T3L1 cells by qRT-PCR analysis. Type of data set: functional, cell-based.
Data set [7] relates to 3T3-L1. As to the kind of experiment: Antiadipogenic activity in differentiated mouse 3T3L1 cells assessed as reduction in triglyceride levels at 50 uM after 8 days by oil red o-staining based spectrophotometric analysis relative to control. The class given is functional. Also noted: scale not given: the % may be the effect or the level left.
Data set [8] relates to 3T3-L1. As to the kind of experiment: Downregulation of PPARgamma protein expression in mouse 3T3L1 cells by SDS-PAGE analysis. Type of data set: functional, cell-based.
Data set [9] addresses T1, 5'-AMP-activated protein kinase (Mus musculus) (UniProt Q5EG47+Q8BRK8+Q6PAM0+O54950+Q91WG5+Q9R078+Q8BGM7). The data set is described as follows: Induction of AMPK phosphorylation in mouse 3T3L1 cells at 50 uM by SDS-PAGE analysis. The class given is cell-based. To be noted: 3T3-L1.
The subject of data set [10] is 3T3-L1. The data set is described as follows: Downregulation of C/EBPalpha protein expression in mouse 3T3L1 cells by SDS-PAGE analysis. Type of data set: functional, cell-based.
In data set [11] the target is Alpha glucosidase (Homo sapiens) (UniProt O43451+P10253+P14410+Q2M2H8). As to the kind of experiment: Inhibition of alpha-glucosidase (unknown origin) using […]-alpha-D-glucopyranoside as substrate at 10 to 50 uM preincubated for 10 mins followed by substrate addition measured after 5 mins. The class given is protein assay.
The test system of data set [12] is 3T3-L1. As to the kind of experiment: Downregulation of C/EBPalpha mRNA expression in mouse 3T3L1 cells by qRT-PCR analysis. Type of data set: functional, cell-based.
For data set [13], the system named is 3T3-L1. The data set is described as follows: Antiadipogenic activity in mouse 3T3L1 cells assessed as suppression of adipocyte differentiation at 30 uM after 8 days by oil red o-staining based spectrophotometric analysis. The class given is functional.
Data set [14] has as its target T1, 5'-AMP-activated protein kinase (Mus musculus). As to the kind of experiment: Induction of AMPK phosphorylation in mouse 3T3L1 cells at 30 uM by SDS-PAGE analysis. Type of data set: cell-based. To be noted: 3T3-L1.
The subject of data set [15] is 3T3-L1. As to the kind of experiment: Downregulation of SREBP-1c protein expression in mouse 3T3L1 cells by SDS-PAGE analysis. Type of data set: functional, cell-based.
The subject of data set [16] is 3T3-L1. As to the kind of experiment: Downregulation of PPARgamma mRNA expression in mouse 3T3L1 cells by qRT-PCR analysis. The class given is functional, cell-based. In general terms: Quantitative PCR measures a nucleic acid by following its amplification.
Data set [17] deals with 3T3-L1. The data set is described as follows: Antiadipogenic activity in differentiated mouse 3T3L1 cells assessed as reduction in triglyceride levels at 20 uM after 8 days by oil red o-staining based spectrophotometric analysis relative to control. Also noted: scale not given: the % may be the effect or the level left. Type of data set: functional.
Data set [18] relates to 3T3-L1. As to the kind of experiment: Induction of glucose uptake in differentiated mouse 3T3L1 cells at 30 uM preincubated for 20 mins followed by 2-deoxyglucose addition measured after 20 mins by fluorescence assay relative to control. Type of data set: functional.
The subject of data set [19] is 3T3-L1. The data set is described as follows: Cytotoxicity against mouse 3T3L1 cells assessed as reduction in cell viability at =<50 uM after 48 hrs by SRB assay. Type of data set: cell-based. To be noted: 3t3-l1, 48 h.
For data set [20], the system named is 3T3-L1. The data set is described as follows: Antiadipogenic activity in mouse 3T3L1 cells assessed as suppression of adipocyte differentiation at 50 uM after 8 days by oil red o-staining based spectrophotometric analysis. Type of data set: functional.

Consider `CC(C)CC(=O)O[C@@H]1c2c(ccc3ccc(=O)oc23)OC(C)(C)[C@@H]1OC(=O)CC(C)C` (relative stereo), for which the outcome in the data set with 3T3-L1 [1] was Active. Further, the Activity in the data set on 3T3-L1 [2] is 57%; in the data set on 3T3-L1 [3], 67%; in the data set with 3T3-L1 [4], 33%; in the data set on 3T3-L1 [5], “Non-Toxic”; in the data set with 3T3-L1 [6], “Dose-dependent effect”; with 3T3-L1 [7], 65%. Also, the Activity result in the data set with 3T3-L1 [8] was “Dose-dependent effect”; in data set [9] it was 103%; in the data set with 3T3-L1 [10], “Dose-dependent effect”; with 3T3-L1 [12] it was “Dose-dependent effect”; in the data set on 3T3-L1 [13], 71%; in [14], 72%. Further, the Activity result with 3T3-L1 [15] was “Dose-dependent effect”; in the data set with 3T3-L1 [16], “Dose-dependent effect”; in the data set with 3T3-L1 [17] it was 44%; with 3T3-L1 [18], 43%; in the data set with 3T3-L1 [19] it was “Non-Toxic”; in the data set with 3T3-L1 [20], 80%. Also, the inhibition result in data set [11] was “Active”.
